Experimental data: patent publication US7169783B2, “(+)-Trans-4-(1-aminoethyl)-1-(4-pyridycarbamoyl)-cyclohexane and method for promoting neural growth in the central nervous system and in a patient at a site of neuronal lesion” (Universite de Montreal, priority 1998, dated 2007)

Legend:
primary retinal neurons = test: Neurite growth of primary retinal neurons on complex inhibitory substrates (CSPG, myelin); type: cell-based, rats; details: plated on myelin or CSPG; 48 hours; FIG. 8
[1] = tested on: corticospinal tract (CST) fibers; parameters: species or system Balb-c female mice; details: mouse, in vivo
hindlimb motor function = test: Behavioral recovery after SCI, modified BBB locomotor rating scale; type: in vivo, mice
Protocol: Since a toe clearance phase cannot be evaluated in recuperating mice, we modified the rating to a 17 point scale. Behavioral recovery was assessed for one month after SCI in an open field environment by the BBB method (Basso et al., 1995). […] Thus, scale points 16, 17 and 18 were removed from the scale. Mice raise their tail early in their recovery, and score 19 for tail up position was removed, leaving a 17 point total score. The mouse modified BBB score was as follows: [0] no observable hindlimb (HL) movement; […] […] In the late phase of recovery, the BBB score was determined from sequences of 4 steps or more from digitized videos projected on a computer screen at ¼ speed.

Structure (SMILES): C[C@@H](N)[C@H]1CC[C@H](C(=O)Nc2ccncc2)CC1 [Y27632, (+)-Trans-4-(1-aminoethyl)-1-(4-pyridycarbamoyl)-cyclohexane]
- length of neurites compared to untreated cells (primary retinal neurons): significantly increased the length of neurites
- distance of the longest axon from the lesion site [1]: up to 3 mm
- sprouting of transected CST axons [1]: regenerative sprouting into the dorsal white matter and toward the lesion site
- locomotor recovery over 1 month (hindlimb motor function; 1 month period of observation): exhibited hindlimb-forelimb coordination
- locomotor recovery at 24 hours after surgery (hindlimb motor function; 24 hours, control mice paraplegic, FIG. 10): already walking with weight support
